# From ChEMBL document CHEMBL5055633, “Amphipathic Barbiturates as Mimics of Antimicrobial Peptides and the Marine Natural Products Eusynstyelamides with Activity against Multi-resistant Clinical Isolates” (J Med Chem, 2021)
# How the values were obtained:
# [1] = test system: MRC5; assay: Cytotoxicity against human MRC5 cells assessed as reduction in cell viability incubated for 24 hrs by colorimetric tetrazolium assay; assay type: functional, cell-based; details: MRC5, 24 h
# [2] = test system: Escherichia coli; assay: Antimicrobial activity against imipenem-type carbapenemase-26 producing Escherichia coli 50857972 assessed as reduction in bacterial growth incubated for 48 hrs by microdilution method; assay type: functional
# [3] = test system: Corynebacterium glutamicum; assay: Antimicrobial activity against Corynebacterium glutamicum ATCC 13032 assessed as reduction in bacterial growth incubated for 48 hrs by microdilution susceptibility test; assay type: functional
# [4] = test system: Pseudomonas aeruginosa; assay: Antimicrobial activity against verona integron-encoded metallo-beta-lactamase-2 producing Pseudomonas aeruginosa K34-7 assessed as reduction in bacterial growth incubated for 48 hrs by microdilution method; assay type: functional
# [5] = Antimicrobial activity against New Delhi metallo-beta lactamase-1 and oxacillinase -181 producing Klebsiella pneumoniae 50531633 assessed as reduction in bacterial growth incubated for 48 hrs by microdilution method; assay type: functional
# [6] = test system: Escherichia coli; assay: Antimicrobial activity against New Delhi metallo-beta lactamase-1 producing Escherichia coli 50676002 assessed as reduction in bacterial growth incubated for 48 hrs by microdilution method; assay type: functional
# [7] = test system: Pseudomonas aeruginosa; assay: Antimicrobial activity against Pseudomonas aeruginosa PAO1 assessed as reduction in bacterial growth incubated for 48 hrs by microdilution susceptibility test; assay type: functional
# [8] = test system: Enterococcus faecium; assay: Antimicrobial activity against extended spectrum-lactamase-carbapenemas producing Enterococcus faecium strain K36-18 assessed as reduction in bacterial growth incubated for 48 hrs by microdilution method; assay type: functional
# [9] = Antimicrobial activity against carbapenemase producing Klebsiella pneumoniae K47-25 assessed as reduction in bacterial growth incubated for 48 hrs by microdilution method; assay type: functional
# [10] = test system: Escherichia coli; assay: Antimicrobial activity against verona integron-encoded metallo-beta-lactamase-29-producing Escherichia coli 50639799 assessed as reduction in bacterial growth incubated for 48 hrs by microdilution method; assay type: functional
# [11] = test system: Escherichia coli; assay: Antimicrobial activity against Escherichia coli ATCC 25922 assessed as reduction in bacterial growth incubated for 48 hrs by microdilution susceptibility test; assay type: functional
# [12] = test system: Staphylococcus aureus; assay: Antimicrobial activity against extended spectrum-lactamase-carbapenemas producing Staphylococcus aureus strain IHT 99040 assessed as reduction in bacterial growth incubated for 48 hrs by microdilution method; assay type: functional
# [13] = test system: Staphylococcus aureus; assay: Antimicrobial activity against extended spectrum-lactamase-carbapenemas producing Staphylococcus aureus N315 assessed as reduction in bacterial growth incubated for 48 hrs by microdilution method; assay type: functional
# [14] = test system: Pseudomonas aeruginosa; assay: Antimicrobial activity against imipenem-type carbapenemase-14 producing Pseudomonas aeruginosa K44-24 assessed as reduction in bacterial growth incubated for 48 hrs by microdilution method; assay type: functional
# [15] = test system: Staphylococcus aureus; assay: Antimicrobial activity against extended spectrum-lactamase-carbapenemas producing Staphylococcus aureus strain WIS assessed as reduction in bacterial growth incubated for 48 hrs by microdilution method; assay type: functional
# [16] = test system: Enterococcus faecium; assay: Antimicrobial activity against extended spectrum-lactamase-carbapenemas producing Enterococcus faecium strain TUH.50-22 assessed as reduction in bacterial growth incubated for 48 hrs by microdilution method; assay type: functional
# [17] = Hemolytic activity in human erythrocytes incubated for 1 hr by microplate reader; assay type: functional, cell-based; details: erythrocyte
# [18] = test system: HepG2; assay: Cytotoxicity against human HepG2 cells assessed as reduction in cell viability incubated for 24 hrs by colorimetric tetrazolium assay; assay type: functional, cell-based; details: HepG2, 24 h
# [19] = test system: Enterococcus faecium; assay: Antimicrobial activity against extended spectrum-lactamase-carbapenemas producing Enterococcus faecium strain 50758899 assessed as reduction in bacterial growth incubated for 48 hrs by microdilution method; assay type: functional
# [20] = test system: Staphylococcus aureus; assay: Antimicrobial activity against extended spectrum-lactamase-carbapenemas producing Staphylococcus aureus strain 85/2082 assessed as reduction in bacterial growth incubated for 48 hrs by microdilution method; assay type: functional
# [21] = test system: Escherichia coli; assay: Antimicrobial activity against New Delhi metallo-beta lactamase-1 producing Escherichia coli 50739822 assessed as reduction in bacterial growth incubated for 48 hrs by microdilution method; assay type: functional
# [22] = Antimicrobial activity against oxacillinase-245 producing Klebsiella pneumoniae 50625602 assessed as reduction in bacterial growth incubated for 48 hrs by microdilution method; assay type: functional
# [23] = test system: Staphylococcus aureus; assay: Antimicrobial activity against Staphylococcus aureus ATCC 9144 assessed as reduction in bacterial growth incubated for 48 hrs by microdilution susceptibility test; assay type: functional
# [24] = test system: Pseudomonas aeruginosa; assay: Antimicrobial activity against verona integron-encoded metallo-beta-lactamase producing Pseudomonas aeruginosa 50692520 assessed as reduction in bacterial growth incubated for 48 hrs by microdilution method; assay type: functional
# [25] = test system: Acinetobacter baumannii; assay: Antimicrobial activity against oxacillinase-58 producing Acinetobacter baumannii K12-21 assessed as reduction in bacterial growth incubated for 48 hrs by microdilution method; assay type: functional
# [26] = Antimicrobial activity against New Delhi metallo-beta lactamase-1 Klebsiella pneumoniae K66-45 assessed as reduction in bacterial growth incubated for 48 hrs by microdilution method; assay type: functional
# [27] = test system: Staphylococcus aureus; assay: Antimicrobial activity against extended spectrum-lactamase-carbapenemas producing Staphylococcus aureus NCTC 10442 assessed as reduction in bacterial growth incubated for 48 hrs by microdilution method; assay type: functional
# [28] = test system: Enterococcus faecium; assay: Antimicrobial activity against extended spectrum-lactamase-carbapenemas producing Enterococcus faecium strain 50673722 assessed as reduction in bacterial growth incubated for 48 hrs by microdilution method; assay type: functional
# [29] = test system: Pseudomonas aeruginosa; assay: Antimicrobial activity against New Delhi metallo-beta lactamase-1 producing Pseudomonas aeruginosa 50692172 assessed as reduction in bacterial growth incubated for 48 hrs by microdilution method; assay type: functional
# [30] = test system: Pseudomonas aeruginosa; assay: Antimicrobial activity against verona integron-encoded metallo-beta-lactamase-4 producing Pseudomonas aeruginosa K34-73 assessed as reduction in bacterial growth incubated for 48 hrs by microdilution method; assay type: functional
# [31] = test system: Escherichia coli; assay: Antimicrobial activity against oxacillinase-producing Escherichia coli 50579417 assessed as reduction in bacterial growth incubated for 48 hrs by microdilution method; assay type: functional
# [32] = Antimicrobial activity against verona integron-encoded metallo-beta-lactamase -1 producing Klebsiella pneumoniae 50667959 assessed as reduction in bacterial growth incubated for 48 hrs by microdilution method; assay type: functional
# [33] = test system: Acinetobacter baumannii; assay: Antimicrobial activity against oxacillinase-24 producing Acinetobacter baumannii K55-13 assessed as reduction in bacterial growth incubated for 48 hrs by microdilution method; assay type: functional
# [34] = test system: Acinetobacter baumannii; assay: Antimicrobial activity against oxacillinase-23 producing Acinetobacter baumannii K63-58 assessed as reduction in bacterial growth incubated for 48 hrs by microdilution method; assay type: functional
# [35] = test system: Acinetobacter baumannii; assay: Antimicrobial activity against oxacillinase-23 producing Acinetobacter baumannii K47-42 assessed as reduction in bacterial growth incubated for 48 hrs by microdilution method; assay type: functional
# [36] = test system: Enterococcus faecium; assay: Antimicrobial activity against extended spectrum-lactamase-carbapenemas producing Enterococcus faecium strain 50901530 assessed as reduction in bacterial growth incubated for 48 hrs by microdilution method; assay type: functional
# [37] = test system: Acinetobacter baumannii; assay: Antimicrobial activity against oxacillinase-23 producing Acinetobacter baumannii K44-35 assessed as reduction in bacterial growth incubated for 48 hrs by microdilution method; assay type: functional
smiles,measurement,setting,value
CC(C)(C)c1cc(CC2(Cc3cc(C(C)(C)C)cc(C(C)(C)C)c3)C(=O)N(CCCCNC(=N)N)C(=O)N(CCCCNC(=N)N)C2=O)cc(C(C)(C)C)c1.O=C(O)C(F)(F)F.O=C(O)C(F)(F)F,IC50,[1],17 µg/mL
same,MIC,[2],8 µg/mL
same,MIC,[3],0.25 µg/mL
same,MIC,[4],16 µg/mL
same,MIC,[5],16 µg/mL
same,MIC,[6],16 µg/mL
same,MIC,[7],4 µg/mL
same,MIC,[8],2 µg/mL
same,MIC,[9],16 µg/mL
same,MIC,[10],8 µg/mL
same,MIC,[11],4 µg/mL
same,MIC,[12],2 µg/mL
same,MIC,[13],4 µg/mL
same,MIC,[14],16 µg/mL
same,MIC,[15],2 µg/mL
same,MIC,[16],2 µg/mL
same,EC50,[17],< 6 µg/mL
same,IC50,[18],15 µg/mL
same,MIC,[19],2 µg/mL
same,MIC,[20],2 µg/mL
same,MIC,[21],8 µg/mL
same,MIC,[22],16 µg/mL
same,MIC,[23],1 µg/mL
same,MIC,[24],16 µg/mL
same,MIC,[25],4 µg/mL
same,MIC,[26],8 µg/mL
same,MIC,[27],2 µg/mL
same,MIC,[28],2 µg/mL
same,MIC,[29],16 µg/mL
same,MIC,[30],8 µg/mL
same,MIC,[31],16 µg/mL
same,MIC,[32],8 µg/mL
same,MIC,[33],4 µg/mL
same,MIC,[34],4 µg/mL
same,MIC,[35],4 µg/mL
same,MIC,[36],2 µg/mL
same,MIC,[37],4 µg/mL
CC(C)(C)c1ccc(CC2(Cc3ccc(C(C)(C)C)cc3)C(=O)N(CCCCN)C(=O)N(CCCCN)C2=O)cc1.O=C(O)C(F)(F)F.O=C(O)C(F)(F)F,IC50,[1],1 µg/mL
same,MIC,[2],4 µg/mL
same,MIC,[3],1 µg/mL
same,MIC,[4],> 32 µg/mL
same,MIC,[5],16 µg/mL
same,MIC,[6],4 µg/mL
same,MIC,[7],8 µg/mL
same,MIC,[8],8 µg/mL
same,MIC,[9],> 32 µg/mL
same,MIC,[10],8 µg/mL
same,MIC,[11],4 µg/mL
same,MIC,[12],8 µg/mL
same,MIC,[13],8 µg/mL
same,MIC,[14],> 32 µg/mL
same,MIC,[15],8 µg/mL
same,MIC,[16],8 µg/mL
same,EC50,[17],145 µg/mL
same,IC50,[18],3 µg/mL
same,MIC,[19],8 µg/mL
same,MIC,[20],8 µg/mL
same,MIC,[21],8 µg/mL
same,MIC,[22],16 µg/mL
same,MIC,[23],4 µg/mL
same,MIC,[24],> 32 µg/mL
same,MIC,[25],16 µg/mL
same,MIC,[26],32 µg/mL
same,MIC,[27],8 µg/mL
same,MIC,[28],8 µg/mL
same,MIC,[29],> 32 µg/mL
same,MIC,[30],> 32 µg/mL
same,MIC,[31],8 µg/mL
same,MIC,[32],32 µg/mL
same,MIC,[33],16 µg/mL
same,MIC,[34],16 µg/mL
same,MIC,[35],16 µg/mL
same,MIC,[36],4 µg/mL
same,MIC,[37],32 µg/mL
CN(C)[C@@H]1C(O)=C(C(N)=O)C(=O)[C@@]2(O)C(O)=C3C(=O)c4c(O)cccc4[C@@](C)(O)[C@H]3[C@H](O)[C@@H]12 [OXYTETRACYCLINE],MIC,[3],2.5 µg/mL
same,MIC,[11],20 µg/mL
same,MIC,[23],0.65 µg/mL
N=C(N)NCCCCN1C(=O)N(CCCCNC(=N)N)C(=O)C(Cc2ccc(Br)c(Cl)c2)(Cc2ccc(Br)c(Cl)c2)C1=O.O=C(O)C(F)(F)F.O=C(O)C(F)(F)F,IC50,[1],36 µg/mL
same,MIC,[2],4 µg/mL
same,MIC,[3],0.25 µg/mL
same,MIC,[4],16 µg/mL
same,MIC,[5],4 µg/mL
same,MIC,[6],4 µg/mL
same,MIC,[7],8 µg/mL
same,MIC,[8],4 µg/mL
same,MIC,[9],4 µg/mL
same,MIC,[10],4 µg/mL
same,MIC,[11],2 µg/mL
same,MIC,[12],2 µg/mL
same,MIC,[13],2 µg/mL
same,MIC,[14],16 µg/mL
same,MIC,[15],2 µg/mL
same,MIC,[16],2 µg/mL
same,EC50,[17],77 µg/mL
same,IC50,[18],15 µg/mL
same,MIC,[19],4 µg/mL
same,MIC,[20],2 µg/mL
same,MIC,[21],4 µg/mL
same,MIC,[22],4 µg/mL
same,MIC,[23],0.5 µg/mL
same,MIC,[24],16 µg/mL
same,MIC,[25],8 µg/mL
same,MIC,[26],8 µg/mL
same,MIC,[27],4 µg/mL
same,MIC,[28],4 µg/mL
same,MIC,[29],32 µg/mL
same,MIC,[30],8 µg/mL
same,MIC,[31],4 µg/mL
same,MIC,[32],8 µg/mL
same,MIC,[33],8 µg/mL
same,MIC,[34],8 µg/mL
same,MIC,[35],8 µg/mL
same,MIC,[36],2 µg/mL
same,MIC,[37],8 µg/mL
